One assay addresses PDE10 (Rattus norvegicus (Rat), UniProt Q9QYJ6). The experiment in a line: PDE10 ex vivo receptor occupancy (RO) screening in rat striatum. Particulars: oral, 10 mpk, 1 h (footnote A). On the procedure:
The ex vivo screening protocol was approved by Amgen's Institutional Animal Care and Use Committee (IACUC) and in accordance with the National Institutes of Health Guide for Care and Use of Laboratory Animals in facilities accredited by the Association for the Assessment and Accreditation of Laboratory Animal Care (AALAC).
PDE10 inhibitors were dissolved in 2% Hydroxypropylmethylcellulose (HPMC), 1% Tween-80, pH 2.2 with methanesulfonic acid. Male Sprague Dawley® rats weighing 180-225 g (4 per group) were dosed orally with either vehicle or PDE10 inhibitors (3 mg/kg or 10 mg/kg) and then returned to their home cage to allow for absorption of the compounds. After one hour (with 10 mg/kg PDE10 inhibitor) or four hours (with 3 mg/kg or 10 mg/kg PDE10 inhibitor) rats were sacrificed by CO2 inhalation. Blood was obtained by heart puncture and plasma was frozen and stored at −80° C. for exposure analysis. Brains were removed and immediately frozen in chilled methylbutane, and stored at −80° C. until cutting. Three coronal brain slices per brain containing the striatum were cut at […] using a cryostat and placed onto microscope slides, air-dried and stored at −20° C. For radioligand binding experiments, slides were thawed at room temperature and then incubated with 1 nM a tritium labeled tracer compound (insert citation) in binding buffer (150 mM Phosphate-buffered saline containing 2 mM MgCl2 and 100 mM DTT, pH 7.4) for 1 minute at 4° C. To assess non-specific binding, slides containing adjacent brain sections were incubated in the same solution with addition of […] of an unlabelled, structurally unrelated PDE10 antagonist. Afterwards slides were washed 3 times in ice-cold binding buffer, dipped into distilled water to remove buffer salts, and dried under a stream of cold air. Emission of beta particles from the sections was counted for 8 hours in a Beta Imager 2000 (Biospace, Paris, France) and digitized and analyzed using M3 Vision software (Biospace, Paris, France). Total binding radioactivity in the striatum was measured as cpm/mm^2 in hand-drawn regions of interest and averaged across the three sections per brain. Non-specific binding was subtracted to obtain specific binding values and percent occupancy was calculated by setting vehicle specific binding as 0% occupancy.

In the next assay the target is human PDE2A1 (Homo sapiens (Human), UniProt O00408). The experiment in a line: PDE2A inhibition, PDE IMAP TR-FRET assay. The assay is classed as biochemical. The following applies: FAM-cAMP substrate. Here is the method: Purified human PDE2A1 and PDE10A2 enzymes were obtained from BPS Bioscience (San Diego, Calif.). IMAP™ TR-FRET progressive binding system, FAM-cAMP substrate were from Molecular Devices (Sunnyvale, Calif.).
The PDE IMAP assay was conducted in a 384-well black Greiner polypropylene plate (Sigma, St. Louis, Mo.). PDE inhibitors were serial diluted in 100% DMSO and dispensed into assay plate at […] per well using Echo® Liquid Handling System from LABCYTE. Ten μL of PDE enzyme in IMAP reaction buffer (10 mM Tris-HCl, pH 7.2, 10 mM MgCl2, 0.05% NaN3, and 0.01% Tween-20) was added into the assay wells. The PDE enzyme concentration used was based on each lot of enzyme activity, to ensure enzyme reaction falls in a linear range under assay condition. 1.4 nM of PDE2 or […] PDE10 were used in the assay system. Enzyme was pre-incubated with inhibitors for 60 minutes at room temperature before addition of 10 uL of substrate addition, which results in 100 nM of FAM-cAMP in the reaction. Enzyme reaction was allowed to proceed at room temperature for 90 min, and the reaction is stopped by 55 μl addition of binding reagent according to manufacturer's recommendation. The mixture is further incubated at room temperature for additional 4 hours, and signal was read on an Envision multimode reader (PerkinElmer). Fluorescence signals were measured at 520 nm and 485 nm. The signal ratio at 520/485 nm corresponded to the generation of reaction product of AMP, and it was used in all data analysis. Values from DMSO-treated wells were normalized to POC=100, and no-enzyme wells were normalized to POC=0. IC50 values were determined by using the Genedata Screener V9.0.1. The curve fitting algorithm used for dose response data analysis in Genedata Screener is a custom implementation of a robust curve-fitting algorithm called ROUT (Robust regression with outlier detection) and uses a four-parameter logistical (4 PL) Hill model.

The structures appear in SMILES notation.

Chain of PDE10 (Q9QYJ6 whole entry): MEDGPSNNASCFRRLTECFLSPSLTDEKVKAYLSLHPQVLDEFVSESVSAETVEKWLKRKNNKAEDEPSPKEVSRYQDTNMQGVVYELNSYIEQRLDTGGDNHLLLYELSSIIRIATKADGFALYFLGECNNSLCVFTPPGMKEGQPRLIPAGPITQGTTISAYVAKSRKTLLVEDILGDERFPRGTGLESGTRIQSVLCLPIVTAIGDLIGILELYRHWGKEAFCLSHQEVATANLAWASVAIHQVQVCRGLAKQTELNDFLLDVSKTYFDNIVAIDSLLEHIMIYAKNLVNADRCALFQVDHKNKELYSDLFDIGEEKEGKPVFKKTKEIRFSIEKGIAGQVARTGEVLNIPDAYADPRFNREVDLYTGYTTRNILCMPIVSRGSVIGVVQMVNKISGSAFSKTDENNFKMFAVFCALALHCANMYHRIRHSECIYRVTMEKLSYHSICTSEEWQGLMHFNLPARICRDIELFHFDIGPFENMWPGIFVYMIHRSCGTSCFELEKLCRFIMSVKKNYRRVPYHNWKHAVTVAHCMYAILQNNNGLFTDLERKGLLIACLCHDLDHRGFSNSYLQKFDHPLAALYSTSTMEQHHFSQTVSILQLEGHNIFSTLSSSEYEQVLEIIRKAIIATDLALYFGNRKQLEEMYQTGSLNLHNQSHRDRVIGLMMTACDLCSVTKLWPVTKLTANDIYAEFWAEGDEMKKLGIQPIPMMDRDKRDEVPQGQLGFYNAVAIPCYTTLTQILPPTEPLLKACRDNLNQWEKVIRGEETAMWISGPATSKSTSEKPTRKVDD
Chain of human PDE2A1 (O00408 other isoform, or with tags, fused parts or gaps): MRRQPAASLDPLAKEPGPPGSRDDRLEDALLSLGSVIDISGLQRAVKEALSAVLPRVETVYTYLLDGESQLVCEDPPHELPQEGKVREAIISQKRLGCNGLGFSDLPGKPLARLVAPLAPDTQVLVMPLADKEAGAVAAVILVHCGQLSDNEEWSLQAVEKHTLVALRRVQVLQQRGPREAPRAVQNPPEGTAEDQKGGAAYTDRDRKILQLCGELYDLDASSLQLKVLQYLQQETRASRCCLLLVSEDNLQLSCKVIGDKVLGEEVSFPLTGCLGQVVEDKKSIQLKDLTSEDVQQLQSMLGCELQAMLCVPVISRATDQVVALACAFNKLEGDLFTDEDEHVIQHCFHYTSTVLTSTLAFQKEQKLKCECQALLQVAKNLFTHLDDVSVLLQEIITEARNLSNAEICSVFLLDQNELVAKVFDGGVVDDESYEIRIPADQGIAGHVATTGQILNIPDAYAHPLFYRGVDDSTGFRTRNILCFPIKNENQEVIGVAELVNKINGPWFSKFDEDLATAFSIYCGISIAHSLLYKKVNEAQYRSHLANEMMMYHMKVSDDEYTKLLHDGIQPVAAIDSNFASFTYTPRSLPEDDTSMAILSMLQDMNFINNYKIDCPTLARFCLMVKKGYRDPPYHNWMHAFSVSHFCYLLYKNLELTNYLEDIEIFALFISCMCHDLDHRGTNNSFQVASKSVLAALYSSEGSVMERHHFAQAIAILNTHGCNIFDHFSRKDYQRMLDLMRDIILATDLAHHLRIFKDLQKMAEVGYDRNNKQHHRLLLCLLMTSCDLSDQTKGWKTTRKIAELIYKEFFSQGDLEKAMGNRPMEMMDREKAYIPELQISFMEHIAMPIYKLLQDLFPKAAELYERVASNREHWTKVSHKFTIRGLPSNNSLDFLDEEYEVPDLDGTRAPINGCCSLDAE

As for `NC(=O)c1ccc(-c2nccnc2C2CN(c3ccc4ccccc4n3)C2)cc1` [Compound 15, 4-(3-(1-(2-quinolinyl)-3-azetidinyl)-2-pyrazinyl)benzamide, reference compound], the receptor occupancy at 10 mg/kg at PDE10 was 47.7%. The 50% inhibitory concentration (IC50) against human PDE2A1 was 10 µM.

With `NC(=O)c1ccc(-c2nccnc2C2CN(c3ccc4ccccc4n3)C2)cc1F` [Compound 16, 2-fluoro-4-(3-(1-(quinolin-2-yl)azetidin-3-yl)pyrazin-2-yl)benzamide, reference compound], on PDE10, the receptor occupancy at 10 mg/kg worked out at 52.3%. The molecule further showed an IC50 against human PDE2A1 of 3.3 µM.

On PDE10, `CNC(=O)c1cccc(-c2nccnc2C2CN(c3ccc4ccccc4n3)C2)c1` [Compound 17, N-methyl-3-(3-(1-(quinolin-2-yl)azetidin-3-yl)pyrazin-2-yl)benzamide, reference compound] gave a receptor occupancy at 10 mg/kg of 72%. The same molecule displayed an IC50 against human PDE2A1 of 2.16 µM.

Source of the values: patent publication US8691986B2, “Azetidine and piperidine compounds useful as PDE10 inhibitors” (Amgen Inc., priority 2012, dated 2014).
